Test results: PubChem BioAssay (NCI)
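All cell lines were grown in 96-well plates and treated with compound for 48 hours. Abbreviation: GI50, concentration required for 50% inhibition of growth. TGI denotes the concentration required for complete inhibition of growth.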 Where a SMILES comes first, the peptide text is derived from it. [ ]: non-standard residue; d: D form. Phe(ol) = N[C@H](CO)Cc1ccccc1; Aib = CC(C)(N)C(=O)O

What was measured:
Experiment in all cases: NCI anticancer screen, dose series, 48 h
[1] = test system: SF-295 CNS
[2] = test system: LOX IMVI melanoma
[3] = test system: BT-549 breast
[4] = test system: TK-10 renal
[5] = test system: SK-MEL-28 melanoma
[6] = test system: UO-31 renal
[7] = test system: CAKI-1 renal
[8] = test system: SK-MEL-5 melanoma
[9] = test system: NCI-H522 lung
[10] = test system: NCI-H460 lung
[11] = test system: MOLT-4 leukemia
[12] = test system: K-562 leukemia
[13] = test system: T-47D breast
[14] = test system: OVCAR-8 ovarian
[15] = test system: HOP-92 NSCLC
[16] = test system: KM12 colon
[17] = test system: SNB-75 CNS
[18] = test system: HS 578T breast
[19] = test system: SN12C renal
[20] = test system: HCC-2998 colon
[21] = test system: M14 melanoma
[22] = test system: HOP-62 NSCLC
[23] = test system: MCF7 breast
[24] = test system: OVCAR-3 ovarian
[25] = test system: DU-145 prostate
[26] = test system: COLO 205 colon
[27] = test system: CCRF-CEM leukemia
[28] = test system: OVCAR-4 ovarian
[29] = test system: NCI-H226 lung
[30] = test system: A549 NSCLC
[31] = test system: HCT-15 colon
[32] = test system: UACC-257 melanoma
[33] = test system: OVCAR-5 ovarian
[34] = test system: HCT-116 colon
[35] = test system: MDA-MB-435
[36] = test system: ACHN renal
[37] = test system: RXF 393 renal
[38] = test system: HL-60(TB) leukemia
[39] = test system: U251 CNS
[40] = test system: RPMI-8226 leukemia
[41] = test system: SF-539 CNS
[42] = test system: NCI/ADR-RES ovarian
[43] = test system: SK-MEL-2 melanoma
[44] = test system: UACC-62 melanoma
[45] = test system: SK-OV-3 ovarian
[46] = test system: HT29 colon
[47] = test system: IGROV1 ovarian
[48] = test system: SNB-19 CNS
[49] = test system: A498 renal
[50] = test system: PC-3 prostate
[51] = test system: MDA-MB-231 breast
[52] = test system: MALME-3M melanoma
[53] = test system: SW-620 colon
[54] = test system: 786-0 renal
[55] = test system: SF-268 CNS
[56] = test system: EKVX NSCLC
[57] = test system: SR leukemia
[58] = test system: NCI-H23 lung

C#Cc1nc(C2=C(C)/C(=N/OCc3ccccc3)CC2)cs1
GI50 [1]: 4.76 µM
TGI [1]: > 100 µM
GI50 [2]: 0.199 µM
TGI [2]: 0.444 µM
GI50 [3]: 15.5 µM
TGI [3]: 33.9 µM
GI50 [4]: > 100 µM
TGI [4]: > 100 µM
GI50 [5]: 49.2 µM
TGI [5]: > 100 µM
GI50 [6]: 0.405 µM
TGI [6]: 1.49 µM
GI50 [7]: 32.6 µM
TGI [7]: > 100 µM
GI50 [8]: 22.6 µM
TGI [8]: > 100 µM
GI50 [9]: 5.23 µM
TGI [9]: 23.3 µM
GI50 [10]: 44.2 µM
TGI [10]: > 100 µM
GI50 [11]: 22.4 µM
TGI [11]: 87.6 µM
GI50 [12]: 40.4 µM
TGI [12]: > 100 µM
GI50 [13]: 31 µM
TGI [13]: > 100 µM
GI50 [14]: 47.8 µM
TGI [14]: > 100 µM
GI50 [15]: 5.71 µM
TGI [15]: 24.5 µM
GI50 [16]: > 100 µM
TGI [16]: > 100 µM
GI50 [17]: > 100 µM
TGI [17]: > 100 µM
GI50 [18]: 71.4 µM
TGI [18]: > 100 µM
GI50 [19]: 19.9 µM
TGI [19]: > 100 µM
GI50 [20]: > 100 µM
TGI [20]: > 100 µM
GI50 [21]: 74.8 µM
TGI [21]: > 100 µM
GI50 [22]: > 100 µM
TGI [22]: > 100 µM
GI50 [23]: 21.6 µM
TGI [23]: > 100 µM
GI50 [24]: > 100 µM
TGI [24]: > 100 µM
GI50 [25]: > 100 µM
TGI [25]: > 100 µM
GI50 [26]: > 100 µM
TGI [26]: > 100 µM
GI50 [27]: 3.28 µM
TGI [27]: 15.6 µM
GI50 [28]: 50.9 µM
TGI [28]: > 100 µM
GI50 [29]: 13.5 µM
TGI [29]: > 100 µM
GI50 [30]: 43.4 µM
TGI [30]: > 100 µM
GI50 [31]: 27.8 µM
TGI [31]: > 100 µM
GI50 [32]: 78.5 µM
TGI [32]: > 100 µM
GI50 [33]: 11.7 µM
TGI [33]: > 100 µM
GI50 [34]: 31.9 µM
TGI [34]: > 100 µM
GI50 [35]: > 100 µM
TGI [35]: > 100 µM
GI50 [36]: 2.91 µM
TGI [36]: > 100 µM
GI50 [37]: 2.76 µM
TGI [37]: 21.7 µM
GI50 [38]: 17.5 µM
TGI [38]: 40.9 µM
GI50 [39]: 50.1 µM
TGI [39]: > 100 µM
GI50 [40]: 5.74 µM
TGI [40]: 38.3 µM
GI50 [41]: 1.67 µM
TGI [41]: 3.07 µM
GI50 [42]: 40.1 µM
TGI [42]: > 100 µM
GI50 [43]: 61.8 µM
TGI [43]: > 100 µM
GI50 [44]: 37.2 µM
TGI [44]: > 100 µM
GI50 [45]: 25.5 µM
TGI [45]: 61.6 µM
GI50 [46]: 31 µM
TGI [46]: > 100 µM
GI50 [47]: 1.97 µM
TGI [47]: 4.29 µM
GI50 [48]: 57.1 µM
TGI [48]: > 100 µM
GI50 [49]: > 100 µM
TGI [49]: > 100 µM
GI50 [50]: 36.8 µM
TGI [50]: > 100 µM
GI50 [51]: 32.2 µM
TGI [51]: > 100 µM
GI50 [52]: 8.37 µM
TGI [52]: 30.6 µM
GI50 [53]: 46.9 µM
TGI [53]: > 100 µM
GI50 [54]: 1.63 µM
TGI [54]: 3.12 µM
GI50 [55]: 34.7 µM
TGI [55]: > 100 µM
GI50 [56]: > 100 µM
TGI [56]: > 100 µM

CC(=O)NC(C)(C)C(=O)N1CCC[C@H]1C(=O)NC(C)(C)C(=O)N[C@@H](C)C(=O)NC(C)(C)C(=O)NC(C)(C)C(=O)N[C@@H](CCC(N)=O)C(=O)NC(C)(C)C(=O)N[C@H](C(=O)NC(C)(C)C(=O)NCC(=O)N[C@@H](CC(C)C)C(=O)NC(C)(C)C(=O)N1CCC[C@H]1C(=O)N[C@H](C(=O)NC(C)(C)C(=O)NC(C)(C)C(=O)N[C@@H](CCC(N)=O)C(=O)N[C@@H](CCC(N)=O)C(=O)N[C@H](CO)Cc1ccccc1)C(C)C)C(C)C (Ac-[Aib]P[Aib]A[Aib][Aib]Q[Aib]V[Aib]GL[Aib]PV[Aib][Aib]QQ[Phe(ol)])
GI50 [1]: 1.32 µM
TGI [1]: > 4.25 µM
GI50 [2]: 1.57 µM
TGI [2]: > 4.25 µM
GI50 [3]: 0.78 µM
TGI [3]: 2.66 µM
GI50 [4]: 3.92 µM
TGI [4]: > 4.25 µM
GI50 [5]: 1.36 µM
TGI [5]: > 4.25 µM
GI50 [6]: > 4.25 µM
TGI [6]: > 4.25 µM
GI50 [8]: 0.899 µM
TGI [8]: 1.96 µM
GI50 [9]: 0.948 µM
TGI [9]: > 4.25 µM
GI50 [10]: 1.27 µM
TGI [10]: > 4.25 µM
GI50 [11]: 2.8 µM
TGI [11]: > 4.25 µM
GI50 [12]: 1.88 µM
TGI [12]: > 4.25 µM
GI50 [13]: 1.12 µM
TGI [13]: 3.88 µM
GI50 [14]: 2.43 µM
TGI [14]: > 4.25 µM
GI50 [15]: 1.1 µM
TGI [15]: 3.58 µM
GI50 [16]: 1.88 µM
TGI [16]: > 4.25 µM
GI50 [17]: 0.788 µM
TGI [17]: > 4.25 µM
GI50 [18]: 1.49 µM
TGI [18]: > 4.25 µM
GI50 [19]: 0.931 µM
TGI [19]: > 4.25 µM
GI50 [20]: 1.96 µM
TGI [20]: > 4.25 µM
GI50 [21]: 3.85 µM
TGI [21]: > 4.25 µM
GI50 [22]: 3.07 µM
TGI [22]: > 4.25 µM
GI50 [23]: 0.206 µM
TGI [23]: > 4.25 µM
GI50 [24]: 1.29 µM
TGI [24]: > 4.25 µM
GI50 [26]: 0.831 µM
TGI [26]: 2.31 µM
GI50 [57]: 2.2 µM
TGI [57]: > 4.25 µM
GI50 [27]: 2.11 µM
TGI [27]: > 4.25 µM
GI50 [28]: 1.05 µM
TGI [28]: > 4.25 µM
GI50 [29]: 1.32 µM
TGI [29]: > 4.25 µM
GI50 [30]: 1.69 µM
TGI [30]: > 4.25 µM
GI50 [31]: > 4.25 µM
TGI [31]: > 4.25 µM
GI50 [58]: 0.833 µM
TGI [58]: > 4.25 µM
GI50 [32]: 1.02 µM
TGI [32]: 3.43 µM
GI50 [33]: 1.73 µM
TGI [33]: > 4.25 µM
GI50 [34]: 1.58 µM
TGI [34]: > 4.25 µM
GI50 [35]: 1.5 µM
TGI [35]: > 4.25 µM
GI50 [36]: > 4.25 µM
TGI [36]: > 4.25 µM
GI50 [37]: 0.777 µM
TGI [37]: 2.48 µM
GI50 [38]: 1.74 µM
TGI [38]: > 4.25 µM
GI50 [39]: 1.07 µM
TGI [39]: > 4.25 µM
GI50 [40]: 0.296 µM
TGI [40]: 2.19 µM
GI50 [41]: 1.34 µM
TGI [41]: > 4.25 µM
GI50 [42]: > 4.25 µM
TGI [42]: > 4.25 µM
GI50 [43]: 1.33 µM
TGI [43]: 4.02 µM
GI50 [44]: 1.8 µM
TGI [44]: > 4.25 µM
GI50 [45]: 1.28 µM
TGI [45]: > 4.25 µM
GI50 [46]: 1.26 µM
TGI [46]: > 4.25 µM
GI50 [47]: 3.06 µM
TGI [47]: > 4.25 µM
GI50 [48]: 1.16 µM
TGI [48]: > 4.25 µM
GI50 [49]: 1.64 µM
TGI [49]: > 4.25 µM
GI50 [50]: 1.34 µM
TGI [50]: > 4.25 µM
GI50 [51]: 1.29 µM
TGI [51]: > 4.25 µM
GI50 [52]: 1.04 µM
TGI [52]: 3.43 µM
GI50 [53]: 2.55 µM
TGI [53]: > 4.25 µM
GI50 [54]: > 4.25 µM
TGI [54]: > 4.25 µM
GI50 [55]: 1.73 µM
TGI [55]: > 4.25 µM
GI50 [56]: 2.51 µM
TGI [56]: > 4.25 µM
